Measured values: patent US20210024499A1, “OXIDIZED BIS(3-INDOLYL)METHANES AND USES THEREOF” (Sanford Burnam Prebys Medical Discovery Institute, priority 2018, published 2021)

Key:
Type in all cases: cell-based
[1] = test system: mTOR markers p-S6 and p-4EBP1; assay: mTOR inhibition: expression of mTOR markers; conditions: MDA-MB-231 cells, 1 μM, 6 hours
MDA-MB-231 cells = assay: PARP cleavage assay (Western blotting), MDA-MB-231; conditions: 6 hours
Text: Compound 1a had no effect under the same conditions (FIG. 1A). […] Compound 1a, 28a, 47a, 48a, 73a, 39a, 70a, 103a, 89a and 88a had no effect under the same conditions (FIG. 3B-C).

HCT116 cancer cells = assay: Cell viability (MTT) assay, HCT116; conditions: Homo sapiens, HCT-116; inhibiting the growth of HCT116 cancer cells, cell viability assay (Table 5)
Description: (§1) Cell viability was analyzed by using a colorimetric 3-(4,5-dimethylthiazol-[…]2-yl)-2,5-diphenyletetrazolium Bromide (MTT) assay that determines mitochondrial dehydrogenase activities in the living cells with a colorimetric method. Cells treated with test compounds were incubated with MTT and their effect on the viability of the cells was assayed by the ability of treated cells to reduce the yellow tetrazolium dye MTT to its insoluble formazan, which has a purple color. […]

MDA-MB-231 cancer cells = assay: Cell viability (MTT) assay, MDA-MB-231; conditions: Homo sapiens; inhibiting the growth of MDA-MB-231 cancer cells, cell viability assay (Table 6)
Description: as §1

Row | IC50 (HCT116 cancer cells) | IC50 (MDA-MB-231 cancer cells) | SMILES | expression levels of mTOR markers p-S6 and p-4EBP1 [1] | PARP cleavage (MDA-MB-231 cells; 1 μM) | PARP cleavage (MDA-MB-231 cells; 0.5 μM)
1 |  |  | Fc1ccc2[nH]cc([C+](c3ccc(C(F)(F)F)cc3)c3c[nH]c4ccc(F)cc34)c2c1 [Compound 10, Bis(5-fluoro-1H-indol-3-yl)(4-(trifluoromethyl)phenyl)methylium methanesulfonate] | reduced the expression levels | effectively induce PARP cleavage | 
2 |  |  | Cn1cc([C+](c2ccc(C(F)(F)F)cc2)c2cn(C)c3ccccc23)c2ccccc21 [Compound 11, Bis(1-methyl-1H-indol-3-yl)(4-(trifluoromethyl)phenyl)methylium methanesulfonate] | reduced the expression levels | effectively induce PARP cleavage | 
3 |  |  | Cc1ccc2[nH]cc([C+](c3ccc(C(F)(F)F)cc3)c3c[nH]c4ccc(C)cc34)c2c1 [Compound 15, Bis(5-methyl-1H-indol-3-yl)(4-(trifluoromethyl)phenyl)methylium methanesulfonate] | reduced the expression levels | effectively induce PARP cleavage | 
4 |  |  | Cc1ccc2c([C+](c3ccc(C(F)(F)F)cc3)c3c[nH]c4cc(C)ccc34)c[nH]c2c1 [Compound 18, Bis(6-methyl-1H-indol-3-yl)(4-(trifluoromethyl)phenyl)methylium chloride] | reduced the expression levels | effectively induce PARP cleavage | 
5 |  |  | Fc1ccc2c([C+](c3ccc(C(F)(F)F)cc3)c3c[nH]c4cc(F)ccc34)c[nH]c2c1 [Compound 21, Bis(6-fluoro-1H-indol-3-yl)(4-(trifluoromethyl)phenyl)methylium methanesulfonate] | reduced the expression levels | effectively induce PARP cleavage | 
6 |  |  | Cl.Fc1ccc2c([C+](c3ccc(C(F)(F)F)cc3)c3c[nH]c4cc(F)ccc34)c[nH]c2c1 [Compound 22, Bis(6-fluoro-1H-indol-3-yl)(4-(trifluoromethyl)phenyl)methylium chloride] | reduced the expression levels | effectively induce PARP cleavage | 
7 |  |  | FC(F)(F)c1ccc([C+](c2c[nH]c3cc(Cl)ccc23)c2c[nH]c3cc(Cl)ccc23)cc1 [Compound 24, Bis(6-chloro-1H-indol-3-yl)(4-(trifluoromethyl)phenyl)methylium methanesulfonate] | reduced the expression levels | effectively induce PARP cleavage | 
8 | 500 to 5000 nM | 500 to 5000 nM | FC(F)(F)Oc1ccc([C+](c2c[nH]c3ccccc23)c2c[nH]c3ccccc23)cc1.[Cl-] [Compound 39, Bis(1H-indol-3-yl)(4-(trifluoromethoxy)phenyl)methylium chloride] | reduced the expression levels | effectively induce PARP cleavage | effectively induced PARP cleavage
9 |  |  | Fc1cccc2[nH]cc([C+](c3ccc(C(F)(F)F)cc3)c3c[nH]c4cccc(F)c34)c12.[Cl-] [Compound 43, Bis(4-fluoro-1H-indol-3-yl)(4-(trifluoromethyl)phenyl)methylium chloride] | reduced the expression levels | effectively induce PARP cleavage | 
10 |  |  | Oc1ccc2[nH]cc([C+](c3ccc(C(F)(F)F)cc3)c3c[nH]c4ccc(O)cc34)c2c1.[Cl-] [Compound 46, Bis(5-hydroxy-1H-indol-3-yl)(4-(trifluoromethyl)phenyl)methylium chloride] | reduced the expression levels | effectively induce PARP cleavage | 
11 | < 500 nM | < 500 nM | CCn1cc([C+](c2ccc(C(F)(F)F)cc2)c2c[nH]c3ccccc23)c2ccccc21.[Cl-] [Compound 47, (1-Ethyl-1H-indol-3-yl)(1H-indol-3-yl)(4-(trifluoromethyl)phenyl)methylium chloride] |  |  | effectively induced PARP cleavage
12 | < 500 nM | < 500 nM | CCCn1cc([C+](c2ccc(C(F)(F)F)cc2)c2c[nH]c3ccccc23)c2ccccc21.[Cl-] [Compound 48, (1-Propyl-1H-indol-3-yl)(1H-indol-3-yl)(4-(trifluoromethyl)phenyl)methylium chloride] | reduced the expression levels | effectively induce PARP cleavage | effectively induced PARP cleavage
13 |  |  | CCCCn1cc([C+](c2ccc(C(F)(F)F)cc2)c2c[nH]c3ccccc23)c2ccccc21.[Cl-] [Compound 49, (1-Butyl-1H-indol-3-yl)(1H-indol-3-yl)(4-(trifluoromethyl)phenyl)methylium chloride] | reduced the expression levels | effectively induce PARP cleavage | 
14 |  |  | Cc1ccc2c([C+](c3ccc(C(F)(F)F)cc3)c3c[nH]c4ccccc34)c[nH]c2c1.[Cl-] [Compound 54, (6-Methyl-1H-indol-3-yl)(1H-indol-3-yl)(4-(trifluoromethyl)phenyl)methylium chloride] | reduced the expression levels | effectively induce PARP cleavage | 
15 |  |  | Cc1cccc2c([C+](c3ccc(C(F)(F)F)cc3)c3c[nH]c4ccccc34)c[nH]c12.[Cl-] [Compound 55, (7-Methyl-1H-indol-3-yl)(1H-indol-3-yl)(4-(trifluoromethyl)phenyl)methylium chloride] | reduced the expression levels | effectively induce PARP cleavage | 
16 |  |  | Cc1ccc2[nH]cc([C+](c3ccc(C(F)(F)F)cc3)c3c[nH]c4ccccc34)c2c1.[Cl-] [Compound 57, (5-Methyl-1H-indol-3-yl)(1H-indol-3-yl)(4-(trifluoromethyl)phenyl)methylium chloride] | reduced the expression levels | effectively induce PARP cleavage | 
17 |  |  | Fc1cccc2c([C+](c3ccc(C(F)(F)F)cc3)c3c[nH]c4c(F)cccc34)c[nH]c12.[Cl-] [Compound 62, Bis(7-fluoro-1H-indol-3-yl)(4-(trifluoromethyl)phenyl)methylium chloride] | reduced the expression levels | effectively induce PARP cleavage | 
18 |  |  | FC(F)(F)c1ccc([C+](c2c[nH]c3cc(Cl)ccc23)c2c[nH]c3cc(Cl)ccc23)cc1.[Cl-] [Compound 67, Bis(6-chloro-1H-indol-3-yl)(4-(trifluoromethyl)phenyl)methylium chloride] | reduced the expression levels | effectively induce PARP cleavage | 
19 | < 500 nM | < 500 nM | Fc1ccc2c([C+](c3ccc(C(F)(F)F)cc3)c3c[nH]c4ccccc34)c[nH]c2c1.[Cl-] [Compound 70, (6-Fluoro-1H-indol-3-yl)(1H-indol-3-yl)(4-(trifluoromethyl)phenyl)methylium chloride] |  |  | effectively induced PARP cleavage
20 | < 500 nM | < 500 nM | Fc1cccc2c([C+](c3ccc(C(F)(F)F)cc3)c3c[nH]c4ccccc34)c[nH]c12.[Cl-] [Compound 71, (7-Fluoro-1H-indol-3-yl)(1H-indol-3-yl)(4-(trifluoromethyl)phenyl)methylium chloride] | reduced the expression levels | effectively induce PARP cleavage | 
21 |  |  | Fc1cccc2[nH]cc([C+](c3ccc(C(F)(F)F)cc3)c3c[nH]c4ccccc34)c12.[Cl-] [Compound 72, (4-Fluoro-1H-indol-3-yl)(1H-indol-3-yl)(4-(trifluoromethyl)phenyl)methylium chloride] | reduced the expression levels | effectively induce PARP cleavage | 
22 |  |  | FC(F)(F)c1ccc([C+](c2cn(-c3ccccc3)c3ccccc23)c2cn(-c3ccccc3)c3ccccc23)cc1.[Cl-] [Compound 74, Bis(1-phenyl-1H-indol-3-yl)(4-(trifluoromethyl)phenyl)methylium chloride] | reduced the expression levels | effectively induce PARP cleavage | 
23 | < 500 nM | < 500 nM | Cn1cc([C+](c2ccc(C(F)(F)F)cc2)c2c[nH]c3ccccc23)c2ccc(F)cc21.[Cl-] [Compound 88, (6-Fluoro-1-methyl-1H-indol-3-yl)(1H-indol-3-yl)(4-(trifluoromethyl)phenyl)-methylium chloride] |  |  | effectively induced PARP cleavage
24 | < 500 nM | < 500 nM | Cn1cc([C+](c2ccc(C(F)(F)F)cc2)c2c[nH]c3c(F)cccc23)c2ccccc21.[Cl-] [Compound 89, (7-Fluoro-1H-indol-3-yl)(1-methyl-1H-indol-3-yl)(4-(trifluoromethyl)phenyl)-methylium chloride] |  |  | effectively induced PARP cleavage
25 | < 500 nM | < 500 nM | Fc1cc([C+](c2c[nH]c3ccccc23)c2c[nH]c3ccccc23)ccc1C(F)(F)F.[Cl-] [Compound 103, (3-Fluoro-4-(trifluoromethyl)phenyl)di(1H-indol-3-yl)methylium chloride] |  |  | effectively induced PARP cleavage
